For orientation: bioavailability means the share of a dose that reaches the circulation, judged against a reference dose that is usually intravenous. High values mean good availability, low ones poor availability. As a reminder, the EC50 is the concentration that produces a half-maximal response. Read a high EC50 as lower potency in that assay. By AUC is commonly meant the area under the concentration-time curve, a measure of exposure. Read a high AUC as more exposure. The Cmax is the highest concentration seen after dosing. In general, Tmax refers to the time from dosing to the highest level.

Consider one compound from ChEMBL document CHEMBL2163286, “1,2,3,4-tetrahydroquinoline-based selective human neuronal nitric oxide synthase (nNOS) inhibitors: lead optimization studies resulting in the identification of N-(1-(2-(methylamino)ethyl)-1,2,3,4-tetrahydroquinolin-6-yl)thiophene-2-carboximidamide as a preclinical development candidate” (J Med Chem, 2012).

One data set addresses Cytochrome P450 2D6 (Homo sapiens, UniProt P10635). Briefly: Inhibition of human CYP2D6. It counts as ADME.
Data set [1] in a line: Oral bioavailability life in rat at 10 mg/kg. Format: ADME, organism-based. As to conditions: in vivo; call rule not given here.
Data set [2] is described as follows: Plasma protein binding in human plasma. As to conditions: read-out: PPB (converted). It counts as ADME, cell-free.
The target of data set [3] is T1, Muscarinic acetylcholine receptor M4 (Homo sapiens, UniProt P08173).
T1 sequence (P08173 whole entry): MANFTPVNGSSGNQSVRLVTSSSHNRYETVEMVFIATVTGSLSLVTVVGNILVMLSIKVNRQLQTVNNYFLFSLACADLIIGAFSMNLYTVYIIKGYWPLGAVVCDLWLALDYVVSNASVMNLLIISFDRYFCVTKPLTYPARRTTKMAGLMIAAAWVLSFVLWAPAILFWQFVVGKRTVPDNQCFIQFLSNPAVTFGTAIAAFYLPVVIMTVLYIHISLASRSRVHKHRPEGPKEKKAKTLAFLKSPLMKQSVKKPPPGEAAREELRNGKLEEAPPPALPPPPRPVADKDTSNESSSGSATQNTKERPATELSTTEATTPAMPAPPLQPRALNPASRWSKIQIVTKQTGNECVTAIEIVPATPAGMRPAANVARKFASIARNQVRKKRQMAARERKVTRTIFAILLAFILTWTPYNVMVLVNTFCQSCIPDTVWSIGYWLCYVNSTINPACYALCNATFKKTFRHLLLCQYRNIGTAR
Briefly: Inhibition of human muscarinic M4 receptor by cell based functional assay.

A short description of data set [4]: AUC in rat at 3 mg/kg, iv or 10 mg/kg, po. Format: ADME, organism-based. As to conditions: plasma.
Data set [5] is described as follows: Cmax in rat at 3 mg/kg, iv or 10 mg/kg, po. As to conditions: in vivo. It counts as ADME, organism-based.
Data set [6] in a line: Plasma clearance in rat at 3 mg/kg, iv or 10 mg/kg, po. It counts as ADME, organism-based.
Data set [7] is described as follows: Tmax in rat at 3 mg/kg, iv or 10 mg/kg, po. Format: ADME, organism-based. As to conditions: in vivo.
Data set [8] deals with Muscarinic acetylcholine receptor M3 (Homo sapiens, UniProt P20309). As to the kind of experiment: Inhibition of human muscarinic M3 receptor by cell based functional assay.
The target in the next data set is Cytochrome P450 2C9 (Homo sapiens, UniProt P11712). As to the kind of experiment: Inhibition of human CYP2C9. Format: ADME.
Data set [9] addresses T2, Adrenergic receptor alpha-2 (Rattus norvegicus, UniProt P22086+P19328+P22909).
T2 sequence (P22086 whole entry): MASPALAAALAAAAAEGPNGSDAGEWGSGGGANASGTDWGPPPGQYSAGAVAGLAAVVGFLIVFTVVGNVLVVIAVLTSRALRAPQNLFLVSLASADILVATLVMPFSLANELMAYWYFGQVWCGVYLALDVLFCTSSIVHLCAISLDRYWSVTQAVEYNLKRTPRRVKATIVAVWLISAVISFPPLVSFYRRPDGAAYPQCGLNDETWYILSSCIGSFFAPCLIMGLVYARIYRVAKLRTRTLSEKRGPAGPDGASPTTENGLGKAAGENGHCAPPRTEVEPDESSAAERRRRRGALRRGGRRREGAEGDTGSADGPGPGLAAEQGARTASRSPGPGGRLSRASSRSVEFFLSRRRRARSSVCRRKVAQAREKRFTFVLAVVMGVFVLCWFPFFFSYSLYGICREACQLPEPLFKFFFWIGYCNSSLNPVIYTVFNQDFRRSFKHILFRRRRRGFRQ
T2 sequence (P19328 whole entry): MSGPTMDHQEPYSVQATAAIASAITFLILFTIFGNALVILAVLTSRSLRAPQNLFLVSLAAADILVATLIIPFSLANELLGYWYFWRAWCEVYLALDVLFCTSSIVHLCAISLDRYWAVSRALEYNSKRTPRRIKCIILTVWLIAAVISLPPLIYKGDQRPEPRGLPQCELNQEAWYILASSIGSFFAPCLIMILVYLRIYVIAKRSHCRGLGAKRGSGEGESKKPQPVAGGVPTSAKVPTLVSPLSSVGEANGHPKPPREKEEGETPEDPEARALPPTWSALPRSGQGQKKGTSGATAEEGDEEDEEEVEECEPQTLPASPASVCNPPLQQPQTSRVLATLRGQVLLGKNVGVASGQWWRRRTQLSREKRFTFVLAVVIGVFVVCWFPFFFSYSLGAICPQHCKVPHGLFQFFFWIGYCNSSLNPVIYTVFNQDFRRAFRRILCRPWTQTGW
T2 sequence (P22909 whole entry): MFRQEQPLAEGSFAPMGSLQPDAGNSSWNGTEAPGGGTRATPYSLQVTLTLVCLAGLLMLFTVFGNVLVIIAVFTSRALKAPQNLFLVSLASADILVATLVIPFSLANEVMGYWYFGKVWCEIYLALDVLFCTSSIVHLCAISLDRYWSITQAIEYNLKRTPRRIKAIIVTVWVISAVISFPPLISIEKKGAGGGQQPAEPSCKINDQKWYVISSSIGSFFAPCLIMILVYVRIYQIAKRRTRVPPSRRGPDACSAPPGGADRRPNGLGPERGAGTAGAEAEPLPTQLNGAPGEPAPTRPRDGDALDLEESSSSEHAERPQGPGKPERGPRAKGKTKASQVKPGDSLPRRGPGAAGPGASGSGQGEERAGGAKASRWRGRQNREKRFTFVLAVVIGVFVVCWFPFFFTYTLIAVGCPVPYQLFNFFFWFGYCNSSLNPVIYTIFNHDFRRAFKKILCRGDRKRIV
Briefly: Inhibition of rat Alpha-2 adrenergic receptor by cell based functional assay.

A further data set concerns the target Cytochrome P450 2C19 (Homo sapiens, UniProt P33261). Briefly: Inhibition of human CYP2C19. It counts as ADME.
Data set [10] can be described thus: Volume of distribution at steady state in rat at 3 mg/kg, iv or 10 mg/kg, po. It counts as ADME, organism-based. As to conditions: in vivo, read-out: Vdss.
The target of data set [11] is T3, Muscarinic acetylcholine receptor M1 (Homo sapiens, UniProt P11229).
T3 sequence (P11229 whole entry): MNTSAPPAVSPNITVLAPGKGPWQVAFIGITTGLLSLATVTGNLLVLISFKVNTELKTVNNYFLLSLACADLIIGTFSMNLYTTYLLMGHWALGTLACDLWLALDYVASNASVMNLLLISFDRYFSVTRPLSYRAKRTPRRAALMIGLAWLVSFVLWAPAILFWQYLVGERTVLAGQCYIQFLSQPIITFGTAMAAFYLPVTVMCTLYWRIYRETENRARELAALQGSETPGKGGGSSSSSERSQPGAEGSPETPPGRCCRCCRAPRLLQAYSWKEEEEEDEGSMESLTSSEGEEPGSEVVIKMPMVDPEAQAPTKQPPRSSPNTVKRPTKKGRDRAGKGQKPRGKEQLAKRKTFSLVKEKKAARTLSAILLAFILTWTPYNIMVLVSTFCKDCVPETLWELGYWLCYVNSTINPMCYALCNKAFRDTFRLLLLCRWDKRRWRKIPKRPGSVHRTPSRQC
Briefly: Inhibition of human muscarinic M1 receptor by cell based functional assay.

Bounds are passed on as bounds.

Chain of Muscarinic acetylcholine receptor M3 (P20309 whole entry): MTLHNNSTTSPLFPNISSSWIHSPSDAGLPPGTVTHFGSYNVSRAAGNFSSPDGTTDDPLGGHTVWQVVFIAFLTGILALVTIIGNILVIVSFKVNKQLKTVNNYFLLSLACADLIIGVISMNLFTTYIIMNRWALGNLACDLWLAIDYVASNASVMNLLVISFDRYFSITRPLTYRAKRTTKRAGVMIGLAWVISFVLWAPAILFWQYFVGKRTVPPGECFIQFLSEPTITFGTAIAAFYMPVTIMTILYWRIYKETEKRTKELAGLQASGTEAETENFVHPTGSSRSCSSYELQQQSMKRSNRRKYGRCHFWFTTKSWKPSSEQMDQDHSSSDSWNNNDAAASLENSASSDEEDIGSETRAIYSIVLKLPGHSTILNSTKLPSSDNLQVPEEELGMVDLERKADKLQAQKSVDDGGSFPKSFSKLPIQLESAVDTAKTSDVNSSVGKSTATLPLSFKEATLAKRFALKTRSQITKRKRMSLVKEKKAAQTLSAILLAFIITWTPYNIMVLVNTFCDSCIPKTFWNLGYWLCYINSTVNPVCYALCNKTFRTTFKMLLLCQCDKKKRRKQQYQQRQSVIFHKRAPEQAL
Chain of Cytochrome P450 2C19 (P33261 whole entry): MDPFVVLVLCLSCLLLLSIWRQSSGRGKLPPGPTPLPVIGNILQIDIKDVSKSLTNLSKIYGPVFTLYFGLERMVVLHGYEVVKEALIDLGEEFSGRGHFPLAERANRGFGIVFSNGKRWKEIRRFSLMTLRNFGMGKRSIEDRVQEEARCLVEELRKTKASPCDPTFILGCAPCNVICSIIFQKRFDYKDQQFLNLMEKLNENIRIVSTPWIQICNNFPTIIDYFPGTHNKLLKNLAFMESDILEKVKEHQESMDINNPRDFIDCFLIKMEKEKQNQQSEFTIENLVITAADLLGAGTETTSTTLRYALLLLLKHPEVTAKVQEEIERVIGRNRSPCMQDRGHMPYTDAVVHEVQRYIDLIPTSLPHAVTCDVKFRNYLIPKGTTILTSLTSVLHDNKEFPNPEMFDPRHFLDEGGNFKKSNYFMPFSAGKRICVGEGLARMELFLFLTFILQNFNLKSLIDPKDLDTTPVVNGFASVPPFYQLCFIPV
Chain of Cytochrome P450 2C9 (P11712 whole entry): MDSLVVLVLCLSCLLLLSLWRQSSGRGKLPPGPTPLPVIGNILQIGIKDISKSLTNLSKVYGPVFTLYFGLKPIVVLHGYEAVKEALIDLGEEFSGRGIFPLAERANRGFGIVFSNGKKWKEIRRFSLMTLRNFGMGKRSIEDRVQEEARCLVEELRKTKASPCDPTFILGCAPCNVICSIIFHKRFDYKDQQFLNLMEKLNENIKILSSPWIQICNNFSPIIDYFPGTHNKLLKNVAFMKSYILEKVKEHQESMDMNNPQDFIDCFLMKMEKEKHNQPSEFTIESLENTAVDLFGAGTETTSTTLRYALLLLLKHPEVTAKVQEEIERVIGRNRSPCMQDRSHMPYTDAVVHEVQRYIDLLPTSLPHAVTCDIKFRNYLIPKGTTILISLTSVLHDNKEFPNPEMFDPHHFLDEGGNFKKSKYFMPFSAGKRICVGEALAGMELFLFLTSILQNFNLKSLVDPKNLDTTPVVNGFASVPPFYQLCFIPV
Chain of Cytochrome P450 2D6 (P10635 whole entry): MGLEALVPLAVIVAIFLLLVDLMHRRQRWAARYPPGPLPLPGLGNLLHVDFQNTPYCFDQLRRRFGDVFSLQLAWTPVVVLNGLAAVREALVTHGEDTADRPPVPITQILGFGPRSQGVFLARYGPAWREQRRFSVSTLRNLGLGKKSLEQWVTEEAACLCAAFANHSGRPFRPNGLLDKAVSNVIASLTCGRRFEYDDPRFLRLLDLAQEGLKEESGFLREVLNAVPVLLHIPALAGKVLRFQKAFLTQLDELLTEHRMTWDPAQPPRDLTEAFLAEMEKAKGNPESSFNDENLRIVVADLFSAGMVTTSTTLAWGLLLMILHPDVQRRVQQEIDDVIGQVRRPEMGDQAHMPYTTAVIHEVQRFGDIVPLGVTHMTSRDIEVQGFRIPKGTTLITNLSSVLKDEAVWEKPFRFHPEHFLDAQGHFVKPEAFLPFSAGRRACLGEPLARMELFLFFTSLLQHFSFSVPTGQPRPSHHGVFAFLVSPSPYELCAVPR

As to `CNCCN1CCCc2cc(NC(=N)c3cccs3)ccc21`, the “inhibition (INH)” value against Cytochrome P450 2D6, at Cytochrome P450 2C9 and at Cytochrome P450 2C19 was “Not Active” throughout. The compound further gave a bioavailability in data set [1] of 59.9%. The fraction unbound in data set [2] is 0.6. The EC50 in [3], in data set [8], in [9] and in data set [11] was > 40 µM each time. The compound further yielded an AUC in [4] of 1160 ng·h/mL. The highest level in [5] (Cmax) was 880 nM. In data set [6], this compound had a clearance of 87.7 mL/min/kg. Further, the Tmax in data set [7] was 2 h. Also, in [10], the Vd worked out at 83.9 L/kg.
